In brackets after ≈: the same amount, converted by molar mass.
The compounds below were run on A. baumannii strain ATCC19606 (assay: Minimum inhibitory concentration (MIC) determination, microbroth dilution (CLSI)). Details: Acinetobacter baumannii; A. baumannii ATCC19606; CAMHB; read after 20 hours; >=80% growth inhibition; read-out: ATCC19606 MIC.
Assay type: cell-based
Summary of the method: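 CLSI broth microdilution in cation-adjusted Mueller Hinton broth with twofold compound dilutions and ~5×10^5 CFU/ml inoculum, incubated at 35±2 °C. MIC read after 20 h as lowest concentration inhibiting ≥80% of growth, by eye and OD 600 nm.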

Row | Compound | MIC
1 | CN1C(=O)[C@H](CCCCN)NC(=O)[C@H](Cc2ccc3ccccc3c2)NCc2cccnc2Sc2c(Cl)cc(Cl)cc2CNC(=O)[C@@H]1Cc1c[nH]c2ccccc12 [Example 108, (11S,14S,17S)-14-(4-Amino-butyl)-23,25-dichloro-17-(1H-indol-3-ylmethyl)-16-methyl-11-naphthalen-2-ylmethyl-2-thia-4,10,13,16,19-pentaaza-tricyclo[19.4.0.0*3,8*]pentacosa-1(25),3,5,7,21,23-hexaene-12,15,18-trione] | 16 mg/L (≈ 19.4 µM)
2 | CN1C(=O)[C@H](CCCCN)NC(=O)[C@H](CCCN)NCc2cccnc2Sc2c(Cl)cc(-c3ccc(N)nc3)cc2CNC(=O)[C@@H]1Cc1c[nH]c2ccccc12 [Example 109, (11S,14S,17S)-14-(4-Amino-butyl)-11-(3-amino-propyl)-23-(6-amino-pyridin-3-yl)-25-chloro-17-(1H-indol-3-ylmethyl)-16-methyl-2-thia-4,10,13,16,19-pentaaza-tricyclo[19.4.0.0*3,8*]pentacosa-1(25),3(8),4,6,21,23-hexaene-12,15,18-trione] | 2 mg/L (≈ 2.51 µM)
3 | CN1C(=O)[C@H](CCCCN)NC(=O)[C@H](CCCN)NCc2nccnc2Sc2c(Cl)ccc(Cl)c2CNC(=O)[C@@H]1Cc1c[nH]c2ccccc12 [Example 110, (11S,14S,17S)-14-(4-Amino-butyl)-11-(3-amino-propyl)-22,25-dichloro-17-(1H-indol-3-ylmethyl)-16-methyl-2-thia-4,7,10,13,16,19-hexaaza-tricyclo[19.4.0.0*3,8*]pentacosa-1(25),3,5,7,21,23-hexaene-12,15,18-trione] | 0.5 mg/L (≈ 0.675 µM)
4 | CN1C(=O)[C@H](CCCCN)NC(=O)[C@H](CCCN)NCc2ncccc2Sc2c(Cl)ccc(C(F)(F)F)c2CNC(=O)[C@@H]1Cc1c[nH]c2ccccc12 [Example 111, (11S,14S,17S)-14-(4-Amino-butyl)-11-(3-amino-propyl)-25-chloro-17-(1H-indol-3-ylmethyl)-16-methyl-22-trifluoromethyl-2-thia-7,10,13,16,19-pentaaza-tricyclo[19.4.0.0*3,8*]pentacosa-1(25),3(8),4,6,21,23-hexaene-12,15,18-trione] | 1 mg/L (≈ 1.29 µM)
5 | CN1C(=O)[C@H](CCCCN)NC(=O)[C@H](CCCN)NCc2ncccc2Sc2c(Cl)cc(C(F)(F)F)cc2CNC(=O)[C@@H]1Cc1c[nH]c2ccccc12 [Example 112, (11S,14S,17S)-14-(4-Amino-butyl)-11-(3-amino-propyl)-25-chloro-17-(1H-indol-3-ylmethyl)-16-methyl-23-trifluoromethyl-2-thia-7,10,13,16,19-pentaaza-tricyclo[19.4.0.0*3,8*]pentacosa-1(25),3,5,7,21,23-hexaene-12,15,18-trione] | 0.5 mg/L (≈ 0.647 µM)
6 | CN1C(=O)[C@H](CCCCN)NC(=O)[C@H](CCCN)NCc2ccccc2Sc2c(ccnc2Cl)CNC(=O)[C@@H]1Cc1c[nH]c2ccccc12 [Example 113, (12S,15S,18S)-15-(4-Amino-butyl)-18-(3-amino-propyl)-4-chloro-12-(1H-indol-3-ylmethyl)-13-methyl-2-thia-5,10,13,16,19-pentaaza-tricyclo[19.4.0.0*3,8*]pentacosa-1(25),3,5,7,21,23-hexaene-11,14,17-trione] | 2 mg/L (≈ 2.84 µM)
7 | CN1C(=O)[C@H](CCCCN)NC(=O)[C@H](Cc2cccc3ccccc23)NCc2cccnc2Sc2c(Cl)cc(Cl)cc2CNC(=O)[C@@H]1Cc1c[nH]c2ccccc12 [Example 114, (11S,14S,17S)-14-(4-Amino-butyl)-23,25-dichloro-17-(1H-indol-3-ylmethyl)-16-methyl-11-naphthalen-1-ylmethyl-2-2-thia-4,10,13,16,19-pentaaza-tricyclo[19.4.0.0*3,8*]pentacosa-1(25),3,5,7,21,23-hexaene-12,15,18-trione] | 32 mg/L (≈ 38.9 µM)
8 | CN1CCN(c2cc(-c3cc(Cl)c4c(c3)CNC(=O)[C@H](Cc3c[nH]c5ccccc35)N(C)C(=O)[C@H](CCCCN)NC(=O)[C@H](CCCN)NCc3cccnc3S4)ccn2)CC1 [Example 115, (11S,14S,17S)-14-(4-Amino-butyl)-11-(3-amino-propyl)-25-chloro-17-(1H-indol-3-ylmethyl)-16-methyl-23-[2-(4-methyl-piperazin-1-yl)-pyridin-4-yl]-2-thia-4,10,13,16,19-pentaaza-tricyclo[19.4.0.0*3,8*]pentacosa-1(25),3,5,7,21,23-hexaene-12,15,18-trione] | 2 mg/L (≈ 2.27 µM)
9 | CN1C(=O)[C@H](CCCCN)NC(=O)[C@H](CCCN)NCc2cccnc2Sc2c(Cl)cc(B(O)O)cc2CNC(=O)[C@@H]1Cc1c[nH]c2ccccc12 [Example 116, {(7S,10S,13S)-10-(4-aminobutyl)-7-(3-aminopropyl)-20-chloro-13-[(1H-indol-3-yl)methyl]-12-methyl-8,11,14-trioxo-5,6,7,8,9,10,11,12,13,14,15,16-dodecahydropyrido[2,3-b][1,5,8,11,14]benzothiatetraazacycloheptadecin-18-yl}boronic acid] | 8 mg/L (≈ 10.7 µM)
10 | CN1C(=O)[C@H](CCCCN)NC(=O)[C@H](COCCN)NCc2cccnc2Sc2c(Cl)ccc(C(F)(F)F)c2CNC(=O)[C@@H]1Cc1c[nH]c2ccccc12 [Example 118, (11S,14S,17S)-14-(4-Amino-butyl)-11-(2-amino-ethoxymethyl)-25-chloro-17-(1H-indol-3-ylmethyl)-16-methyl-22-trifluoromethyl-2-thia-4,10,13,16,19-pentaaza-tricyclo[19.4.0.0*3,8*]pentacosa-1(25),3,5,7,21,23-hexaene-12,15,18-trione] | 0.5 mg/L (≈ 0.633 µM)
11 | CN1C(=O)[C@H](COCCN)NC(=O)[C@H](COCCN)NCc2cccnc2Sc2c(Cl)ccc(C(F)(F)F)c2CNC(=O)[C@@H]1Cc1c[nH]c2ccccc12 [Example 119, (11S,14S,17S)-11,14-Bis-(2-amino-ethoxymethyl)-25-chloro-17-(1H-indol-3-ylmethyl)-16-methyl-22-trifluoromethyl-2-thia-4,10,13,16,19-pentaaza-tricyclo[19.4.0.0*3,8*]pentacosa-1(25),3,5,7,21,23-hexaene-12,15,18-trione] | 4 mg/L (≈ 5.05 µM)
12 | CN1C(=O)[C@H](COCCN)NC(=O)[C@H](CCCN)NCc2cccnc2Sc2c(Cl)ccc(C(F)(F)F)c2CNC(=O)[C@@H]1Cc1c[nH]c2ccccc12 [Example 120, (11S,14S,17S)-14-(2-Amino-ethoxymethyl)-11-(3-amino-propyl)-25-chloro-17-(1H-indol-3-ylmethyl)-16-methyl-22-trifluoromethyl-2-thia-4,10,13,16,19-pentaaza-tricyclo[19.4.0.0*3,8*]pentacosa-1(25),3,5,7,21,23-hexaene-12,15,18-trione] | 0.5 mg/L (≈ 0.645 µM)
13 | CN1C(=O)[C@H](CCCCN)NC(=O)[C@H](CCC(N)=O)NCc2cccnc2Sc2c(Cl)ccc(Cl)c2CNC(=O)[C@@H]1Cc1c[nH]c2ccccc12 [Example 121, 3-[(11S,14S,17S)-14-(4-Amino-butyl)-22,25-dichloro-17-(1H-indol-3-ylmethyl)-16-methyl-12,15,18-trioxo-2-thia-4,10,13,16,19-pentaaza-tricyclo[19.4.0.0*3,8*]pentacosa-1(25),3,5,7,21,23-hexaen-11-yl]-propionamide] | 2 mg/L (≈ 2.65 µM)
14 | CN1C(=O)[C@H](CCCCN)NC(=O)[C@H](CCCN)NCc2ccncc2Sc2c(Cl)ccc(C(F)(F)F)c2CNC(=O)[C@@H]1Cc1c[nH]c2ccccc12 [Example 122, (11S,14S,17S)-14-(4-Amino-butyl)-11-(3-amino-propyl)-25-chloro-17-(1H-indol-3-ylmethyl)-16-methyl-22-trifluoromethyl-2-thia-5,10,13,16,19-pentaaza-tricyclo[19.4.0.0*3,8*]pentacosa-1(25),3,5,7,21,23-hexaene-12,15,18-trione] | 1 mg/L (≈ 1.29 µM)
15 | CN1C(=O)[C@H](CCCCN)NC(=O)[C@H](CCCN)NCc2ccncc2Sc2c(Cl)cc(C(F)(F)F)cc2CNC(=O)[C@@H]1Cc1c[nH]c2ccccc12 [Example 123, (11S,14S,17S)-14-(4-Amino-butyl)-11-(3-amino-propyl)-25-chloro-17-(1H-indol-3-ylmethyl)-16-methyl-23-trifluoromethyl-2-thia-5,10,13,16,19-pentaaza-tricyclo[19.4.0.0*3,8*]pentacosa-1(25),3,5,7,21,23-hexaene-12,15,18-trione] | 1 mg/L (≈ 1.29 µM)
16 | CN1C(=O)[C@H](CCCCN)NC(=O)[C@H](CC(N)=O)NCc2cccnc2Sc2c(Cl)cc(Cl)cc2CNC(=O)[C@@H]1Cc1c[nH]c2ccccc12 [Example 127, 2-[(11S,14S,17S)-14-(4-Amino-butyl)-23,25-dichloro-17-(1H-indol-3-ylmethyl)-16-methyl-12,15,18-trioxo-2-thia-4,10,13,16,19-pentaaza-tricyclo[19.4.0.0*3,8*]pentacosa-1(25),3(8),4,6,21,23-hexaen-11-yl]-acetamide] | 16 mg/L (≈ 21.6 µM)
17 | CN1C(=O)[C@H](CCCCN)NC(=O)[C@H](CCCN)NCc2ccccc2Sc2c(cc(-c3ccccc3)cc2C(F)(F)F)CNC(=O)[C@@H]1Cc1c[nH]c2ccccc12 [Example 128, (12S,15,18S)-15-(4-Amino-butyl))-18-(3-amino-propyl)-12-(1H-indo-3-ylmethyl)-13-methyl-6-phenyl-4-trifluoromethyl-2-thia-10,13,16,19-tetraaza-tricyclo[19.4.0.0*3,8*]pentacosa-1(25),3,5,7,21,23-hexaene-11,14,17-trione] | 2 mg/L (≈ 2.46 µM)
18 | CN1C(=O)[C@H](CCCCN)NC(=O)[C@H](CCCN)NCc2cccnc2Sc2c(Cl)ccc(-c3ccccc3)c2CNC(=O)[C@@H]1Cc1c[nH]c2ccccc12 [Example 129, (11S,14S,17S)-14-(4-Amino-butyl)-11-(3-amino-propyl)-25-chloro-17-(1H-indol-3-ylmethyl)-16-methyl-22-phenyl-2-thia-4,10,13,16,19-pentaaza-tricyclo[19.4.0.0*3,8*]pentacosa-1(25),3(8),4,6,21,23-hexaene-12,15,18-trione] | 0.25 mg/L (≈ 0.32 µM)
